Laboratory results as given in US8741923B2, “Oxadiazole fused heterocyclic derivatives useful for the treatment of multiple sclerosis” (Merck Serono SA, priority 2008, dated 2014).
pEC50, pKi: −log10 of the molar value.

Biological target: T1, S1P1 (Homo sapiens (Human), UniProt P21453)
Test: Receptor binding assay ([33P]sphingosine 1-phosphate, SPA) on S1P1 membranes
Conditions: membranes from CHO cells expressing S1P1
Experimental: (§1) Receptor binding assay: Membranes were prepared from CHO cells expressing S1P1 or S1P3 for use in ligand and 35S-GTPγS binding studies. Cells were suspended in 50 mM TRIS, pH 7.4, 2 mM EDTA, 250 mM Sucrose (buffer A) and 1× Complete protease inhibitor cocktail (Roche), and disrupted at 4° C. by N2 decompression using a cell disruption bomb (Parr Instrument). Following centrifugation at 1000 RPM for 10 min at 4° C., the supernatant was suspended in buffer A and centrifuged again at 19000 RPM for 60 min at 4° C. The pellet was then suspended in 10 mM HEPES, pH 7.4, 1 mM EDTA, 250 mM Sucrose (Buffer B), and 1× Complete EDTA-free protease inhibitor cocktail and homogenized using a potter. Membranes were flash frozen in liquid N2 and stored at −80° C. [33P]sphingosine 1-phosphate (3000 Ci/mmol; American Radiolabeled Chemicals, Inc.) was added to test compounds in DMSO. Membranes and WGA SPA beads (GE Healthcare) were added to give a final volume of 100 μl in 96-well plates with assay concentrations of 25 μM or 10 μM [33P]sphingosine 1-phosphate (respectively for S1P1 or S1P3), 50 mM HEPES, pH 7.5, 5 mM MgCl2, 100 mM NaCl, 0.4% fatty acid-free BSA, 1-5 μg/well of proteins and 100 μg/well of WGA SPA beads. Binding was performed for 60 min at RT on a shaker and bound radioactivity was measured on a PerkinElmer 1450 MicroBeta counter. Specific binding was calculated by subtracting remaining radioactivity in the presence of 1000-fold excess of unlabeled S1P. Binding data were analyzed using the GraphPad Prism program.

T1 sequence (P21453 whole entry, species assumed): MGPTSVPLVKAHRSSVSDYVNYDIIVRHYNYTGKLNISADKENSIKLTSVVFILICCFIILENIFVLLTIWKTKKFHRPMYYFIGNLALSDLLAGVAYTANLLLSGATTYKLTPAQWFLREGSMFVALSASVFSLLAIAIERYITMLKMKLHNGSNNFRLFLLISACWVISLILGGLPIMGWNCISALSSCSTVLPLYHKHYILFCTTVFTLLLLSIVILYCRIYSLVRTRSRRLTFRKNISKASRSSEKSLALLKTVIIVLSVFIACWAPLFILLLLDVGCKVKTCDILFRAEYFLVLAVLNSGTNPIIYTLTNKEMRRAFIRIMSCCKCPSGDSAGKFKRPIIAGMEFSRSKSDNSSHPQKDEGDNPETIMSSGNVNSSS

Structure (SMILES)	pKi
COCc1cc(-c2nc(-c3ccc4c(c3)CN(CC(=O)O)CC4)no2)ccc1-c1ccccc1C [Compound 16, [7-{5-[2-(methoxymethyl)-2′-methylbiphenyl-4-yl]-1,2,4-oxadiazol-3-yl}-3,4-dihydroisoquinolin-2(1H)-yl]acetic acid]	9.15
Cc1ccccc1-c1ccc(-c2nc(-c3ccc4c(c3)CN(CCC(=O)O)CC4)no2)cc1C(F)(F)F [Compound 39, 3-[7-{5-[2′-methyl-2-(trifluoromethyl)biphenyl-4-yl]-1,2,4-oxadiazol-3-yl}-3,4-dihydroisoquinolin-2(1H)-yl]propanoic acid]	9.22
Cc1ccccc1-c1ccc(-c2nc(-c3ccc4c(c3)CN(CC(=O)O)CC4)no2)cc1C(F)(F)F [Compound 36, [7-{5-[2′-methyl-2-(trifluoromethyl)biphenyl-4-yl]-1,2,4-oxadiazol-3-yl}-3,4-dihydroisoquinolin-2(1H)-yl]acetic acid]	9.31
COCc1cc(-c2nc(-c3ccc4c(c3)CCN(CCC(=O)O)C4)no2)ccc1-c1ccccc1C [Compound 40, 3-{6-[5-(2-Methoxymethyl-2′-methyl-biphenyl-4-yl)-[1,2,4]oxadiazol-3-yl]-3,4-dihydro-1H-isoquinolin-2-yl}-propionic acid]	8.96

Continued, values first:

pKi	Structure (SMILES)
9.64	COCc1cc(-c2nc(-c3ccc4c(c3)CN(CCC(=O)O)CC4)no2)ccc1-c1ccccc1C [Compound 35, 3-[7-{5-[2-(methoxymethyl)-2′-methylbiphenyl-4-yl]-1,2,4-oxadiazol-3-yl}-3,4-dihydroisoquinolin-2(1H)-yl]propanoic acid]
9.10	CC1CCCCN1c1ccc(-c2nc(-c3ccc4c(c3)CN(CC(=O)O)CC4)no2)cc1C(F)(F)F (stereo not shown) [Compound 38, [7-{5-[4-(2-methylpiperidin-1-yl)-3-(trifluoromethyl)phenyl]-1,2,4-oxadiazol-3-yl}-3,4-dihydroisoquinolin-2(1H)-yl]acetic acid]
9.12	CC1CCCCN1c1ccc(-c2nc(-c3ccc4c(c3)CN(CCC(=O)O)CC4)no2)cc1C(F)(F)F (stereo not shown) [Compound 37, 3-[7-{5-[4-(2-methylpiperidin-1-yl)-3-(trifluoromethyl)phenyl]-1,2,4-oxadiazol-3-yl}-3,4-dihydroisoquinolin-2(1H)-yl]propanoic acid]

Biological target: T1, S1P1
Test: 35S-GTPγS binding, S1P1 membranes
Format: biochemical
Conditions: membranes from CHO cells expressing S1P1
Experimental: as §1, with “Membranes and WGA SPA beads (GE Healthcare) were added to give a final volume of 100 μl in 96-well plates with assay concentrations of 25 μM or 10 μM [33P]sphingosine 1-phosphate (respectively for S1P1 or S1P3), 50 mM HEPES, pH 7.5, 5 mM MgCl2, 100 mM NaCl, 0.4% fatty acid-free BSA, 1-5 μg/well of proteins and 100 μg/well of WGA SPA beads. Binding was performed for 60 min at RT on a shaker and bound radioactivity was measured on a PerkinElmer 1450 MicroBeta counter.” left out
Measurements of 35S-GTPγS Binding:
After 60 min incubation at 30° C. on a shaker, plates were centrifuged for 10 min at 2000 RPM. […] Triplicate samples were averaged and expressed as % response relative to S1P activation in absence of compound (n=2).

Structure (SMILES)	pEC50
COCc1cc(-c2nc(-c3ccc4c(c3)CN(CC(=O)O)CC4)no2)ccc1-c1ccccc1C [Compound 16, [7-{5-[2-(methoxymethyl)-2′-methylbiphenyl-4-yl]-1,2,4-oxadiazol-3-yl}-3,4-dihydroisoquinolin-2(1H)-yl]acetic acid]	8.68
CC1CCCCN1c1ccc(-c2nc(-c3ccc4c(ccn4C)c3)no2)cc1[N+](=O)[O-] (stereo not shown) [Compound 19, 1-methyl-5-{5-[4-(2-methylpiperidin-1-yl)-3-nitrophenyl]-1,2,4-oxadiazol-3-yl}-1H-indole]	5.90
CCc1ccccc1-c1ccc(-c2nc(-c3ccc4c(c3)CN(CCC(=O)O)CC4)no2)cc1COC [Compound 31, 3-[7-{5-[2′-ethyl-2-(methoxymethyl)biphenyl-4-yl]-1,2,4-oxadiazol-3-yl}-3,4-dihydroisoquinolin-2(1H)-yl]propanoic acid]	8.60
Cc1cc(-c2nc(-c3ccc4c(c3)CNCC4)no2)cnc1N1CCCC1C (stereo not shown) [Compound 14, 7-{5-[5-methyl-6-(2-methylpyrrolidin-1-yl)pyridin-3-yl]-1,2,4-oxadiazol-3-yl}-1,2,3,4-tetrahydroisoquinoline]	7.19
CCC1CCCCN1c1ccc(-c2nc(-c3ccc4c(c3)CN(CC(=O)O)CC4)no2)cc1COC (stereo not shown) [Compound 34, [7-{5-[4-(2-ethylpiperidin-1-yl)-3-(methoxymethyl)phenyl]-1,2,4-oxadiazol-3-yl}-3,4-dihydroisoquinolin-2(1H)-yl]acetic acid]	8.71
COCc1cc(-c2nc(-c3cc(F)c4[nH]cnc4c3)no2)ccc1-c1ccccc1C [Compound 9, 7-fluoro-5-{5-[2-(methoxymethyl)-2′-methylbiphenyl-4-yl]-1,2,4-oxadiazol-3-yl}-1H-benzimidazole]	9.30
Cc1ccccc1-c1ccc(-c2nc(-c3ccc4c(ccn4C)c3)no2)cc1C [Compound 17, 5-[5-(2,2′-dimethylbiphenyl-4-yl)-1,2,4-oxadiazol-3-yl]-1-methyl-1H-indole]	5.88
Cc1cc(-c2noc(-c3ccc(N4CCCCC4C)c(C(F)(F)F)c3)n2)cc2nc[nH]c12 (stereo not shown) [Compound 8, 7-methyl-5-{5-[4-(2-methylpiperidin-1-yl)-3-(trifluoromethyl)phenyl]-1,2,4-oxadiazol-3-yl}-1H-benzimidazole]	8.15
CCC1CCCCN1c1ccc(-c2nc(-c3ccc4c(c3)CN(CCC(=O)O)CC4)no2)cc1COC (stereo not shown) [Compound 33, 3-[7-{5-[4-(2-ethylpiperidin-1-yl)-3-(methoxymethyl)phenyl]-1,2,4-oxadiazol-3-yl}-3,4-dihydroisoquinolin-2(1H)-yl]propanoic acid]	9.05
CC1CCCCN1c1ccc(-c2nc(-c3ccc4[nH]ccc4c3)no2)cc1C#N (stereo not shown) [Compound 23, 5-[3-(1H-indol-5-yl)-1,2,4-oxadiazol-5-yl]-2-(2-methylpiperidin-1-yl)benzonitrile]	7.38
CC1CCCCN1c1ccc(-c2nc(-c3ccc4[nH]cnc4c3)no2)cc1C#N (stereo not shown) [Compound 2, 5-[3-(1H-benzimidazol-5-yl)-1,2,4-oxadiazol-5-yl]-2-(2-methylpiperidin-1-yl)benzonitrile]	8.00
C[C@@H]1CCCCN1c1ccc(-c2nc(-c3ccc4[nH]cnc4c3)no2)cc1C(F)(F)F [Compound 28, 5-{5-[4-[(2R)-2-methylpiperidin-1-yl]-3-(trifluoromethyl)phenyl]-1,2,4-oxadiazol-3-yl}-1H-benzimidazole]	7.64
CCc1ccccc1-c1ccc(-c2nc(-c3ccc4c(c3)CN(CC(=O)O)CC4)no2)cc1COC [Compound 30, [7-{5-[2′-ethyl-2-(methoxymethyl)biphenyl-4-yl]-1,2,4-oxadiazol-3-yl}-3,4-dihydroisoquinolin-2(1H)-yl]acetic acid]	8.36

The next lines start with the values.

pEC50	Structure (SMILES)
7.85	CC1CCCCN1c1ccc(-c2nc(-c3cc(F)c4[nH]cnc4c3)no2)cc1C(F)(F)F (stereo not shown) [Compound 7, 7-fluoro-5-{5-[4-(2-methylpiperidin-1-yl)-3-(trifluoromethyl)phenyl]-1,2,4-oxadiazol-3-yl}-1H-benzimidazole]
7.51	COCc1cc(-c2nc(-c3ccc4cc(C(=O)O)[nH]c4c3)no2)ccc1-c1ccccc1C [Compound 32, 6-{5-[2-(methoxymethyl)-2′-methylbiphenyl-4-yl]-1,2,4-oxadiazol-3-yl}-1H-indole-2-carboxylic acid]
7.42	COCc1cc(-c2nc(-c3cc(C)c4[nH]cnc4c3)no2)ccc1-c1ccccc1C [Compound 26, 5-{5-[2-(methoxymethyl)-2′-methylbiphenyl-4-yl]-1,2,4-oxadiazol-3-yl}-7-methyl-1H-benzimidazole]
8.52	C[C@H]1CCCCN1c1ccc(-c2nc(-c3ccc4[nH]cnc4c3)no2)cc1C(F)(F)F [Compound 29, 5-{5-[4-[(2S)-2-methylpiperidin-1-yl]-3-(trifluoromethyl)phenyl]-1,2,4-oxadiazol-3-yl}-1H-benzimidazole]
6.33	COc1cc2[nH]c(C(=O)O)cc2cc1-c1noc(-c2ccc(N3CCCCC3C)c(C(F)(F)F)c2)n1 (stereo not shown) [Compound 21, 6-methoxy-5-{5-[4-(2-methylpiperidin-1-yl)-3-(trifluoromethyl)phenyl]-1,2,4-oxadiazol-3-yl}-1H-indole-2-carboxylic acid]
8.60	COCc1cc(-c2nc(-c3ccc4[nH]cnc4c3)no2)ccc1N1CCCCC1C (stereo not shown) [Compound 6, 5-{5-[3-(methoxymethyl)-4-(2-methylpiperidin-1-yl)phenyl]-1,2,4-oxadiazol-3-yl}-1H-benzimidazole]
< 4.70	Cc1cc(-c2nc(-c3ccc4c(c3)CN(C(=O)OC(C)(C)C)CC4)no2)cnc1N1CCCC1C (stereo not shown) [Compound 13, tert-butyl 7-{5-[5-methyl-6-(2-methylpyrrolidin-1-yl)pyridin-3-yl]-1,2,4-oxadiazol-3-yl}-3,4-dihydroisoquinoline-2(1H)-carboxylate]
5.52	Cc1ccccc1-c1ccc(-c2nc(-c3ccc4c(ccn4CC(=O)O)c3)no2)cc1C [Compound 18, {5-[5-(2,2′-dimethylbiphenyl-4-yl)-1,2,4-oxadiazol-3-yl]-1H-indol-1-yl}acetic acid]
